Where a name gives a salt, the structure may show the parent alone. Read-outs that look alike come from different tables or passages of the source.
Columns and labels:
[1] = system: S. pneumoniae; test: Resistance frequency determination and cross resistance of spontaneous mutants; type: cell-based, Streptococcus pneumoniae; conditions: cross resistance testing of 2 mutants
[2] = system: S. pneumoniae D39x; test: Mouse challenge, mouse model of lung infection; type: in vivo; conditions: 72 hours post challenge
Protocol: Mice were treated with a 5 mg/kg dose b.i.d. of spectinomycin (indicated as “SPC” in the figure) or compound 2 (the compound number refers to the compound number and associated structure shown in Table 1), or vehicle. (Panel B) The bacterial burden of mice at 18 hours post-challenge with S. pneumoniae D39x. (Panel C) Representative bioluminescent images of mice at 72 hours post challenge.
All experimental animal protocols were approved by the St. Jude Children's Research Hospital Institutional Animal Care and Use Committee. Seven week old, female BalbC/J mice (Jackson Labs, Bar Harbor, Me.) we utilized in these studies. All mice were maintained in BSL2 facilities and all experiments were done under inhaled isoflurane (2.5%). Bacteria (strain D39x) were introduced by intranasal administration of 2×10^7 CFU in 25 μL PBS. Mice received no treatment, plasmalyte A (vehicle control), ampicillin (100 mg/kg), spectinomycin (50, 25, 5 mg/kg) or the respective compounds (50, 25, 5 mg/kg) at dosages indicated. Antibiotics were administered in a volume of 100 μL by subcutaneous […] starting at 18 hours post challenge, a time point when the mice have developed pneumonia and bacteria have translocated into the bloodstream. Mice were subsequently dosed every 12 hours until 96 hours post challenge. Mice were monitored daily for signs of infection and weight loss. Differences in time to death were compared via Kaplan-Meier survival estimates. Bacterial density in blood was quantified at 24, 48, 72, and 96 hours post infection via blood collection, serial dilution, and plating. Groups were then compared by Mann-Whitney to determine statistical significance. At 8 days following challenge, surviving mice were euthanized and bacterial loads in lungs determined by homogenization followed by serial dilution and plating. In all instances, surviving mice had completely cleared bacteria from both the lungs and the bloodstream by this time point.
Compound 2 was tested for anti-pneumococcal activity in mice as described above. […]

[3] = system: Moraxella catarrhalis; test: MIC determination (Table 6); type: cell-based
[4] = system: Neisseria gonorrhoeae (ATCC 49226); test: Agar MIC determination (Alamar Blue); type: cell-based; conditions: ATCC49226, agar MIC, read-out: MIC N.g.
[5] = system: Streptococcus pneumoniae (R6); test: MIC determination, microbroth dilution; type: cell-based
[6] = system: Proteus vulgaris (ATCC 33420); test: MIC determination, microbroth dilution; type: cell-based; conditions: ATCC33420
[7] = system: Streptococcus pyogenes (ATCC 700294); test: MIC determination, microbroth dilution; type: cell-based; conditions: ATCC700294; Streptococcus pyogenes (ATCC 700294); read-out: MIC S. py.
[8] = system: Neisseria gonorrhoeae (ATCC 49226); test: Disc diffusion assay; type: cell-based; conditions: ATCC49226, 4 μg per disc, read-out: Zone of inhibition N.g.
[9] = system: Listeria monocytogenes; test: MIC determination (Table 6); type: cell-based
[10] = system: live vaccine strain (LVS) of Francisella tularensis; test: microbe, parasite or virus in culture; type: cell-based; conditions: Francisella tularensis
[11] = system: M. tuberculosis clinical isolates; test: microbe, parasite or virus in culture; type: cell-based; conditions: Mycobacterium tuberculosis, H37RV, read-out: MIC H37Rv
[12] = system: Legionella pneumophila (ATCC 33153); test: microbe, parasite or virus in culture; type: cell-based; conditions: ATCC33153, 72 h, read-out: Zone of inhibition L.p.
[13] = system: Bacillus subtilis (ATCC 23857); test: MIC determination, microbroth dilution; type: cell-based; conditions: ATCC23857; Bacillus subtilis (ATCC 23857); read-out: MIC B.s.
[14] = system: Klebsiella pneumoniae (ATCC 33495); test: MIC determination, microbroth dilution; type: cell-based; conditions: ATCC33495
[15] = system: Neisseria meningitides (ATCC 13077); test: Disc diffusion assay; type: cell-based; conditions: ATCC13077, 4 μg per disc, read-out: Zone of inhibition N.m.
[16] = system: Bacillus anthracis; test: microbe, parasite or virus in culture; type: cell-based; conditions: read-out: MIC B.a.
[17] = system: Burkholderia cepacia (ATCC 25416); test: MIC determination, microbroth dilution; type: cell-based; conditions: Burkholderia cepacia
[18] = system: Streptococcus pneumoniae clinical isolates representing several serotypes; test: MIC determination, Streptococcus pneumoniae panel of clinical isolates (Table 7); type: cell-based; conditions: Streptococcus pneumoniae
[19] = system: Stenotrophomonas maltophilia (ATCC 13637); test: MIC determination, microbroth dilution; type: cell-based; conditions: ATCC13637; Stenotrophomonas maltophilia (ATCC 13637); read-out: MIC S.m.
[20] = system: Yersinia pestis; test: microbe, parasite or virus in culture; type: cell-based; conditions: read-out: MIC Y.p.
[21] = system: Staphylococcus aureus (ATCC 29213); test: MIC determination, microbroth dilution; type: cell-based; conditions: ATCC29213; Staphylococcus aureus (ATCC 29213); read-out: MIC S.a.
[22] = system: Bacillus anthracis, Sterne 34F2; test: microbe, parasite or virus in culture; type: cell-based; conditions: STERNE34F2, read-out: MIC B.a.
[23] = system: Pseudomonas aeruginosa (PA01); test: MIC determination, microbroth dilution; type: cell-based
[24] = system: acinetobacter baumannii (ATCC 19606); test: MIC determination, microbroth dilution; type: cell-based; conditions: ATCC19606
[25] = system: E. coli K12 ΔtolC; test: microbe, parasite or virus in culture; type: cell-based; conditions: Escherichia coli, read-out: MIC E.c. Δtolc
[26] = system: Enterococcus faecalis (ATCC 33186); test: MIC determination, microbroth dilution; type: cell-based; conditions: ATCC33186; Enterococcus faecalis (ATCC 33186); read-out: MIC E.f.
[27] = system: Haemophilus influenza (ATCC 49247); test: microbe, parasite or virus in culture; type: cell-based; conditions: ATCC49247; Haemophilus influenza; 4 μg per disc; range of at least two experiments; read-out: Zone of inhibition H.i.
[28] = system: Escherichia coli (ATCC 700926); test: MIC determination, microbroth dilution; type: cell-based; conditions: ATCC700926; Escherichia coli (ATCC 700926); read-out: MIC E.c.
[29] = system: Proteus mirabilis (ATCC 25933); test: MIC determination, microbroth dilution; type: cell-based; conditions: ATCC25933
[30] = system: MRSA, Staphylococcus aureus (NRS70); test: MIC determination, microbroth dilution; type: cell-based; conditions: Staphylococcus aureus (NRS70); read-out: MIC MRSA
[31] = Streptococcus pneumoniae (R6), read-out: MIC S. pn.
[32] = Streptococcus pneumoniae, S. pneumoniae R6, Drug Susceptible, read-out: MIC R6
[33] = ATCC25416, read-out: MIC B.c., Burkholderia cepacia (ATCC 25416)
[34] = ATCC25416, read-out: MIC B.c., Burkholderia cepacia, Table 6
[35] = BAA1407, S. pneumoniae BAA-1407, Macrolide Resistant, read-out: MIC BAA-1407
[36] = S. pneumoniae Daw7, PenG Resistant, read-out: MIC Daw7
[37] = S. pneumoniae Daw8, PenG Resistant, read-out: MIC Daw8
[38] = S. pneumoniae Daw9, PenG Resistant, read-out: MIC Daw9
[39] = S. pneumoniae Daw62, PenG Resistant, read-out: MIC Daw62
[40] = S. pneumoniae Daw64, PenG Resistant, read-out: MIC Daw64
[41] = S. pneumoniae OVA6, Macrolide Resistant, read-out: MIC OVA6
[42] = S. pneumoniae T4X, Drug Susceptible, read-out: MIC T4X

CN[C@@H]1[C@H](O)[C@H](NC)[C@H]2O[C@@]3(O)C(=O)C[C@@H](C)O[C@H]3O[C@@H]2[C@H]1O [spectinomycin]
susceptibility of mutants resistant to 2 [1]: cross resistance
bioluminescent images of mice [2]: systemic bacterial infection

CC1(C)S[C@@H]2[C@H](NC(=O)[C@H](N)c3ccccc3)C(=O)N2[C@H]1C(=O)O [ampicillin]
susceptibility of mutants resistant to 2 [1]: susceptible

CC(=O)NC[C@H]1CN(c2ccc(N3CCOCC3)c(F)c2)C(=O)O1 [linezolid]
susceptibility of mutants resistant to 2 [1]: susceptible

CN[C@H](CC(C)C)C(=O)N[C@H]1C(=O)N[C@@H](CC(N)=O)C(=O)N[C@H]2C(=O)N[C@H]3C(=O)N[C@H](C(=O)N[C@H](C(=O)O)c4cc(O)cc(O)c4-c4cc3ccc4O)[C@H](O)c3ccc(c(Cl)c3)Oc3cc2cc(c3O[C@@H]2O[C@H](CO)[C@@H](O)[C@H](O)[C@H]2O[C@H]2C[C@](C)(N)[C@H](O)[C@H](C)O2)Oc2ccc(cc2Cl)[C@H]1O [vancomycin]
susceptibility of mutants resistant to 2 [1]: susceptible

CC[C@H]1OC(=O)[C@H](C)[C@@H](O[C@H]2C[C@@](C)(OC)[C@@H](O)[C@H](C)O2)[C@H](C)[C@@H](O[C@@H]2O[C@H](C)C[C@H](N(C)C)[C@H]2O)[C@](C)(O)C[C@@H](C)C(=O)[C@H](C)[C@@H](O)[C@]1(C)O [erythromycin]
susceptibility of mutants resistant to 2 [1]: susceptible

C[C@@H](O)[C@H]1C(=O)N2C(C(=O)O)=C(S[C@@H]3CN[C@H](C(=O)N(C)C)C3)[C@H](C)[C@H]12 [meropenem]
susceptibility of mutants resistant to 2 [1]: susceptible

NCC[C@H](O)C(=O)N[C@@H]1C[C@H](N)[C@@H](O[C@H]2O[C@H](CN)[C@@H](O)[C@H](O)[C@H]2O)[C@H](O)[C@H]1O[C@H]1O[C@H](CO)[C@@H](O)[C@H](N)[C@H]1O [amikacin]
susceptibility of mutants resistant to 2 [1]: susceptible

CN[C@@H]1[C@H](O)[C@H](NC)[C@H]2O[C@]3(O)[C@H](O[C@@H]2[C@H]1O)O[C@H](C)C[C@@]3(O)CNCc1ccc(OC(F)(F)F)cc1 [compound 11, 3′-(R)-3′-[(4-trifluoromethoxyl)benzylaminomethyl)]dihydrospectinomycin Trihydrochloride]
MIC [3]: 6.3 mg/L
MIC [4]: 12.5 mg/L
MIC [5, 31]: 3.1 mg/L
MIC [5, 32]: 3.1 mg/L
MIC [6]: > 200 mg/L
MIC [7]: 1.6 mg/L
zone of inhibition at 4 µg/disc [8]: 16 to 20 mm
MIC [9]: 12.5 to 25 mg/L
MIC [10]: 1.6 mg/L
MIC ([10]; read-out: MIC F.t.): 1.6 to 3.1 mg/L
MIC [11]: 50 mg/L
zone of inhibition at 4 µg/disc [12]: 21 mm
MIC [13]: 100 mg/L
MIC [14]: > 200 mg/L
zone of inhibition at 4 µg/disc [15]: 18 to 19 mm
MIC [16]: 100 to 200 mg/L
MIC [17, 33]: > 200 mg/L
MIC [17, 34]: > 200 mg/L
MIC [18, 35]: 6.3 mg/L
MIC [18, 36]: 3.1 mg/L
MIC [18, 37]: 1.6 mg/L
MIC [18, 38]: 1.6 mg/L
MIC [18, 39]: 1.6 mg/L
MIC [18, 40]: 3.1 mg/L
MIC [18, 41]: 6.3 mg/L
MIC [18, 42]: 0.8 mg/L
MIC [19]: 50 to 100 mg/L
MIC [20]: 200 mg/L
MIC [21]: 100 mg/L
MIC [22]: 100 to 200 mg/L
MIC [23]: 100 to 200 mg/L
MIC [24]: > 200 mg/L
MIC [25]: 12.5 mg/L
MIC [26]: 25 to 50 mg/L
zone of inhibition at 4 µg/disc [27]: 16 mm
MIC [28]: 25 mg/L
MIC [29]: > 200 mg/L
MIC [30]: 100 to 200 mg/L

CN[C@@H]1[C@H](O)[C@H](NC)[C@H]2O[C@]3(O)[C@H](O[C@@H]2[C@H]1O)O[C@H](C)C[C@@]3(O)CNCc1ccccc1 [compound 1, 3′-(R)-3′-(benzylaminomethyl)dihydrospectinomycin Trihydrochloride]
MIC [3]: 6.3 mg/L
MIC [4]: 100 mg/L
MIC [5, 31]: 6.3 to 12.5 mg/L
MIC [5, 32]: 6.3 mg/L
MIC [6]: 200 mg/L
MIC [7]: 3.1 to 6.3 mg/L
zone of inhibition at 4 µg/disc [8]: 16 mm
MIC [9]: 25 mg/L
MIC ([10]; read-out: MIC F.t.): 3.1 mg/L
MIC [11]: 25 mg/L
zone of inhibition at 4 µg/disc [12]: 36 to 40 mm
MIC [13]: 3.1 mg/L
MIC [14]: > 200 mg/L
zone of inhibition at 4 µg/disc [15]: 16 to 22 mm
MIC [16]: 50 mg/L
MIC [17, 33]: ≥ 200 mg/L
MIC [17, 34]: ≥ 200 mg/L
MIC [18, 35]: 12.5 mg/L
MIC ([18]; S. pneumoniae A66.1x, Drug Susceptible, read-out: MIC A66.1x): 3.1 mg/L
MIC ([18]; S. pneumoniae BHN97x, Drug Susceptible, read-out: MIC BHN97x): 3.1 mg/L
MIC ([18]; S. pneumoniae D39X, Drug Susceptible, read-out: MIC D39X): 3.1 mg/L
MIC [18, 36]: 6.3 mg/L
MIC [18, 37]: 6.3 mg/L
MIC [18, 38]: 6.3 mg/L
MIC [18, 39]: 6.3 mg/L
MIC [18, 40]: 6.3 mg/L
MIC [18, 41]: 6.3 mg/L
MIC [18, 42]: 6.3 mg/L
MIC [19]: 25 mg/L
MIC [20]: 100 to 200 mg/L
MIC [21]: 50 mg/L
MIC [22]: 50 mg/L
MIC [23]: > 200 mg/L
MIC [24]: > 200 mg/L
MIC [25]: 25 mg/L
MIC [26]: 25 mg/L
zone of inhibition at 4 µg/disc [27]: 16 mm
MIC [28]: 100 mg/L
MIC [29]: > 200 mg/L
MIC [30]: 50 to 100 mg/L

Reference: patent US10266544B2, “Aryl substituted aminomethyl spectinomycin analogs as antibacterial agents” (ST. JUDE CHILDREN'S RESEARCH HOSPITAL, INC., priority 2013, dated 2019)
